Assay: Inhibition of MDR1 (unknown origin) transfected in human SKOV3 cells assessed as growth inhibition after 48 hrs by SRB assay

| Compound | IC50 [nM] |
| --- | --- |
| CCN(c1ccc(OC)cc1)c1nc(N)nc2[nH]c3ccccc3c12 | 72 |
| CCOc1ccc(N(C)c2nc(N)nc3[nH]c4ccccc4c23)cc1 | 29 |

Source: BindingDB's records for doi:10.1016/j.bmc.2012.12.010 (Duquesne University, 2013)
